“And” between values parts separate entries of the source, which are not always exact repeats. Equal values may be shown once. Ends that are not written are not given here.
Experiments:
[1] = molecular target: T1, dsA2: HLA-A*02:01(Y84C/A139C) disulfide mutant heavy chain / β2m complex (Homo sapiens, UniProt P04439, A163C/D140Y/D185E/D98H/E176V/E277Q/G131W/G231S/I119V/I121R/I166T/I218V/L300P/L318F/N151K/N90K/P208A/P217A/Q86G/Q94H/R138H/R169H/T345S/Y108C); experiment: native mass spectrometry (nMS) of peptide binding to empty dsA2;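 further: native nano-electrospray MS on Q-Tof II in positive mode, dsA2 at 10 µM with peptide 50–200 µM, incubated ≥10 min on ice, argon collision gas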
T1 construct: made in house; host or cells: Escherichia coli (pET3a)

[2] = molecular target: T2, dsA2: HLA-A*02:01(Y84C/A139C) disulfide mutant heavy chain / β2m complex (Homo sapiens, UniProt P04439, D140Y/D185E/D98H/E176V/E277Q/G131W/G231S/I119V/I121R/I166T/I218V/L300P/L318F/N151K/N90K/P208A/P217A/Q86G/Q94H/R138H/R169H/T345S/A163C/Y108C); experiment: as above; conditions: cone 150 V, ratio 1:5, raw data, mean of >=3 measurements
T2 construct: made in house; host or cells: Escherichia coli (pET3a)

[3] = molecular target: T1, dsA2: HLA-A*02:01(Y84C/A139C) disulfide mutant heavy chain / β2m complex; experiment: biochemical; assay type: binding
[4] = molecular target: empty disulfide-stabilized HLA-A*02:01(Y84C/A139C) in complex with beta-2 microglobulin (human); experiment: isothermal analysis of nanoscale differential scanning fluorimetry (iDSF)
[5] = molecular target: empty disulfide-stabilized HLA-A*02:01(Y84C/A139C) in complex with beta-2 microglobulin (human); experiment: native MS
[6] = molecular target: empty disulfide-stabilized HLA-A*02:01(Y84C/A139C) complex of heavy chain and beta-2 microglobulin (human); experiment: native MS
[7] = molecular target: T2, dsA2: HLA-A*02:01(Y84C/A139C) disulfide mutant heavy chain / β2m complex; experiment: nanoscale differential scanning fluorimetry (nDSF) thermal stability; assay type: binding; conditions: for Tm: dsA2 2 µM, at least two independent measurements

| Substance | AUC dsA2 (empty) ([2]; acceleration voltage 10 V) | AUC dsA2/erucamide ([2]; acceleration voltage 10 V) | AUC dsA2/pep ([2]; acceleration voltage 10 V) | AUC dsA2/pep/pep ([2]; acceleration voltage 10 V) | AUC dsA2 (empty) ([2]; acceleration voltage 25 V) | AUC dsA2/erucamide ([2]; acceleration voltage 25 V) | AUC dsA2/pep ([2]; acceleration voltage 25 V) | AUC dsA2/pep/pep ([2]; acceleration voltage 25 V) | AUC dsA2 (empty) ([2]; acceleration voltage 50 V) | AUC dsA2/erucamide ([2]; acceleration voltage 50 V) | AUC dsA2/pep ([2]; acceleration voltage 50 V) | AUC dsA2/pep/pep ([2]; acceleration voltage 50 V) | Kd [3] | Kd [4] | also measured |
| --- | --- | --- | --- | --- | --- | --- | --- | --- | --- | --- | --- | --- | --- | --- | --- |
| NLVPMV [NV6] | 66% | 24% | 10% | 0.5% | 66% | 22% | 11% | 0.69% | 91.2% | 2.9% | 4.1% | 1.9% | 9 µM | – | Kd ([1]; Kd,high): 380 µM; Kd ([1]; Kd,low): 30 µM |
| NLVPMVA [NA7] | 75% | 8% | 16% | 0.8% | 68% | 11% | 19% | 1.4% | 86% | 1.8% | 12% | 0.5% | 3.6 µM | – | Kd ([1]; Kd,high): 210 µM; Kd ([1]; Kd,low): 2 µM |
| NLVPMVAT [NT8] | 47.3% | 24% | 28% | 0.6% | 50% | 21% | 28.2% | 1% | 75% | 1.6% | 23% | 0.2% | 2.6 µM | – | Kd [1]: 92 µM and 30 µM |
| NM5 (NLVPM), truncated NV9 variant (peptide) | – | – | – | – | – | – | – | – | – | – | – | – | – | 11 µM | – |
| NP4 (NLVP), truncated NV9 variant (peptide) | – | – | – | – | – | – | – | – | – | – | – | – | – | 50 µM | Kd [5]: 350 µM and 100 µM |
| NT8 (NLVPMVAT), truncated NV9 variant (peptide) | – | – | – | – | – | – | – | – | – | – | – | – | – | 2.6 µM | Kd [5]: 92 µM |
| NT8, NV9 without the C-terminal valine (peptide) | – | – | – | – | – | – | – | – | – | – | – | – | – | – | Kd [6]: 30 µM |
| NV6 (NLVPMV), truncated NV9 variant (peptide) | – | – | – | – | – | – | – | – | – | – | – | – | – | 9 µM | – |
| PMVATV [PV6] | 68% | 19% | 12% | 0.5% | 68% | 19% | 13% | 0.5% | 90% | 5% | 5% | 0.1% | 15 µM | – | Kd ([1]; Kd,high): 300 µM; Kd ([1]; Kd,low): 15 µM |
| PV6 (PMVATV), truncated NV9 variant (peptide) | – | – | – | – | – | – | – | – | – | – | – | – | – | 15 µM | – |
| VPMVATV [VV7] | 61.8% | 19% | 17% | 1.7% | 62% | 20.2% | 17% | 1.16% | 96% | 1.3% | 3% | 0% | 7.8 µM | – | Kd ([1]; Kd,high): 180 µM; Kd ([1]; Kd,low): 15 µM |
| VV4 (VATV), truncated NV9 variant (peptide) | – | – | – | – | – | – | – | – | – | – | – | – | – | 50 µM | – |
| VV7 (VPMVATV), truncated NV9 variant (peptide) | – | – | – | – | – | – | – | – | – | – | – | – | – | 7.8 µM | – |
| YPNVNIHNF [YF9, reference compound] | 56 ± 3% and 56% | 39 ± 2% and 39% | 4 ± 2% and 4% | 0% | 51% | 44% | 5% | 0% | 95% | 2% | 5% | 0% | – | – | Tm ([7]; peptide 0.2 µM): 36.1 °C; Tm ([7]; peptide 2 µM): 36.1 °C; Tm ([7]; peptide 20 µM): 36.2 °C; ∆Tm of dsA2 by peptide binding ([7]; protein-peptide ratio 1:10 (dsA2 2 µM), relative to empty dsA2 Tm 35.7 ± 0.6 °C, citrate phosphate buffer pH 7.6, duplicates): 1 ± 1 K |
